# Assay results from patent US20230097883A1, “ERGOTHIONEINE PET COMPOUNDS AND METHODS OF USE THEREOF” (VANDERBILT UNIVERSITY, priority 2021, published 2023).
# Entries after “also recorded” stand apart in the source; their conditions may differ.
# Tests used:
# [1] = test system: neuroblastoma SH-SY5Y cells; assay: DCFH-DA ROS scavenging assay in SH-SY5Y cells; type: cell-based
# From the text: We used a commercially available DCFH-DA (2′,7′-dichlorodihydrofluorescein diacetate) probe to assess the ROS scavenging power of ERGO in HeLa and neuroblastoma SH-SY5Y cells. Upon penetrating the cytoplasm, DCFH-DA is deacetylated by endogenous esterases to a non-fluorescent intermediate, followed by oxidation by free radicals. This generates a continuous and extended conjugation system, resulting in the production of highly fluorescent DCF (2′ 7′-dichlorofluorescein). In an aqueous condition, DCF has a maximal excitation and emission of 495 nm and 529 nm, respectively. Well-adhered HeLa or SH-SY5Y cells previously incubated with DCFH-DA were exposed to a commercial ROS initializer and ERGO concentrations ranging from 0-100 mM. […] Each point in the assay was measured in pentaplicate, p<0.0001.
# On day 1, HeLa cells or SH-SY5Y cells were seeded into a 96-well plate with a density of 10,000 cells/mL. […] Immediately afterwards, fluorescence measurement began using a microplate reader (Biotek Industries, Agilent Technologies, Winooski, Vt., USA) with an excitation and emission wavelength of 485 nm and 528 nm, respectively. Each ERGO concentration was measured in pentaplicate.
# 5XFAD mice [2] = assay: Elevated zero maze after ERGO treatment; type: in vivo, mouse
# Description: (§1) To address our primary question whether longitudinal consumption of ERGO as a potent antioxidant benefit the brain, three cohorts of animals (n=12 non-treated WT control, n=12 non-treated 5XFAD, and n=18 ERGO-treated 5XFAD) were used (FIG. 3.2A). Starting at the age of 8 weeks, the animals were treated with high doses of ERGO solution (25-50 mg/Kg) formulated in double distilled (dd) water via oral gavage three times a week over the course of eight weeks. To reduce bias in the behavioral experiments with regard to the potential stress during gavage treatment, non-treated animals underwent the identical gavage process with the vehicle, water, only. The efficacy of the therapy was evaluated by behavioral testing, followed by three different non-invasive PET imaging sessions to assess biomarkers related to AD pathology. In addition to assessing Abeta levels and glucose metabolism using the [^11C]PIB and [^18F]FDG probes, respectively; we also tested for the first time whether oxidative stress could be used as an indicator of response to therapy using the [^11C]ERGO PET radioligand. […]
# We recorded exploratory activity in open versus closed zones of a standard EZM during a 5-min trial. […] Closed zones had walls of approximately 30 cm height and light levels of 215-280 lux depending on where they were measured. […]
# 5XFAD mice [3] = assay: Novel object recognition after ERGO treatment; type: in vivo, mouse; conditions: ERGO-treated 5XFAD versus non-treated 5XFAD and WT, final test trial
# Description: as §1, with “pathology.” for “pathology. In addition to assessing Abeta levels and glucose metabolism using the [^11C]PIB and [^18F]FDG probes, respectively; we also tested for the first time whether oxidative stress could be used as an indicator of response to therapy using the [^11C]ERGO PET radioligand.”
# Mice were first allowed to habituate to an open arena for 5 min (white acrylic box, approximately 40 cm^2) located under a camera to record position and movement during trials. […] Preference for either object was inferred from exploratory proximity which was recorded automatically using AnyMaze using a target area comprising a circle with diameter 2-cm larger than the target objects. […]
# Abeta = Abeta immunohistochemistry (6E10 antibody) of brain sections after ERGO treatment; type: in vivo, mouse; conditions: ERGO-treated versus non-treated 5XFAD mice, approx. 4 months of age
# Description: To confirm the in vivo observations, animals were perfused, and the brain sections were stained with anti-Abeta antibody, 6E10. […] In particular, we observed a clear difference in the hippocampus, pyramidal cortex and thalamus of non-treated compared to ERGO-treated 5XFAD mice (FIG. 3L, 3.30, 3.3R).
# Quantitative analysis of the PET imaging and IHC data was performed using imageJ software. The data was imported to GraphPad Prism version 9 for Mac (GraphPad Software, San Diego, Calif., USA) for statistical analysis. Differences between groups were tested using unpaired t-test.
smiles,measurement,setting,value
"C[N+](C)(C)[C@@H](Cc1c[nH]c(=S)[nH]1)C(=O)[O-] [ERGO, L-ergothioneine]",DCF fluorescence signal (ROS),[1]; ERGO 100 mM,nearly negligible; also recorded: quenches the fluorescence totally
same,DCF fluorescence signal (ROS),[1]; ERGO starting from 5 mM,attenuates the fluorescence significantly
same,adverse effects on activity or anxiety-like behavior,"5XFAD mice [2]; 5XFAD mice, ERGO 25-50 mg/Kg oral gavage three times a week over eight weeks",no adverse effects
same,time spent exploring the closed zones,"5XFAD mice [2]; ERGO-treated 5XFAD mice (each group), 5-min trial",~60%
same,discrimination index,5XFAD mice [3],did not vary among the groups
same,"decrease in Abeta level (pixel counts), hippocampus",Abeta,4 fold
same,"decrease in Abeta level (pixel counts), pyramidal cortex",Abeta,5 fold
same,"decrease in Abeta level (pixel counts), thalamus",Abeta,2 fold
